Measured values reported in PubChem BioAssay AID2060622 (Molecular Pharmacology Branch, DTP, NCI, 2025).

Test system: 242566-281-R-J2-PDC complex spheroid viability
Assay: Anticancer human tumor 242566-281-R-J2-PDC patient-derived pancreatic carcinoma cell line growth inhibition [CLK]
Settings: for IC50: curve of first compound; for viability, T/C: stronger effect = lower value
Summary of the method: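 Multi-cell-type spheroids combined patient-derived tumor cells with HUVEC endothelial cells and human mesenchymal stem cells. Paired agents were dosed in half-log steps down from about clinical Cmax, or from 10 microM where Cmax was unknown.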

[1] = second compound 0.0316 µM, first compound 0.0316 µM
[2] = second compound 0.0316 µM, first compound 0.1 µM
[3] = second compound 0.0316 µM, first compound 0.316 µM
[4] = second compound 0.0316 µM, first compound 1 µM
[5] = second compound 0.0316 µM, first compound 3.16 µM
[6] = second compound 0.0316 µM, first compound 10 µM
[7] = second compound 0.1 µM, first compound 0.0316 µM
[8] = second compound 0.1 µM, first compound 0.1 µM
[9] = second compound 0.1 µM, first compound 0.316 µM
[10] = second compound 0.1 µM, first compound 1 µM
[11] = second compound 0.1 µM, first compound 3.16 µM
[12] = second compound 0.1 µM, first compound 10 µM
[13] = second compound 0.316 µM, first compound 0.0316 µM
[14] = second compound 0.316 µM, first compound 0.1 µM
[15] = second compound 0.316 µM, first compound 0.316 µM
[16] = second compound 0.316 µM, first compound 1 µM
[17] = second compound 0.316 µM, first compound 3.16 µM
[18] = second compound 0.316 µM, first compound 10 µM
[19] = second compound 1 µM, first compound 0.0316 µM
[20] = second compound 1 µM, first compound 0.1 µM
[21] = second compound 1 µM, first compound 0.316 µM
[22] = second compound 1 µM, first compound 1 µM
[23] = second compound 1 µM, first compound 3.16 µM
[24] = second compound 1 µM, first compound 10 µM
[25] = second compound 3.16 µM, first compound 0.0316 µM
[26] = second compound 3.16 µM, first compound 0.1 µM
[27] = second compound 3.16 µM, first compound 0.316 µM
[28] = second compound 3.16 µM, first compound 1 µM
[29] = second compound 3.16 µM, first compound 3.16 µM
[30] = second compound 3.16 µM, first compound 10 µM
[31] = second compound 10 µM, first compound 0.0316 µM
[32] = second compound 10 µM, first compound 0.1 µM
[33] = second compound 10 µM, first compound 0.316 µM
[34] = second compound 10 µM, first compound 1 µM
[35] = second compound 10 µM, first compound 3.16 µM
[36] = second compound 10 µM, first compound 10 µM
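Further: spheroids exposed to compounds for 7 days before readout.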
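Wherever viability, T/C is given: 100% = DMSO vehicle control wells.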

Nc1ccn(C2OC(CO)C(O)C2(F)F)c(=O)n1 (centres undefined) + CN1CCN(c2cc(C(=O)Nc3cc4cc(-c5cnn(C)c5)ccc4cn3)ccn2)CC1
IC50 (second compound 0.0316 µM): < 31.6 nM
IC50 (second compound 0.1 µM): < 31.6 nM
IC50 (second compound 0.316 µM): < 31.6 nM
IC50 (second compound 1 µM): < 31.6 nM
IC50 (second compound 3.16 µM): < 31.6 nM
IC50 (second compound 10 µM): < 31.6 nM
viability, T/C [1]: 46.6%
viability, T/C [2]: 20.6%
viability, T/C [3]: 10.6%
viability, T/C [4]: 13.3%
viability, T/C [5]: 8.86%
viability, T/C [6]: 6.79%
viability, T/C [7]: 48.6%
viability, T/C [8]: 15.4%
viability, T/C [9]: 10.2%
viability, T/C [10]: 6.87%
viability, T/C [11]: 6.64%
viability, T/C [12]: 5.01%
viability, T/C [13]: 23.9%
viability, T/C [14]: 15.3%
viability, T/C [15]: 10.9%
viability, T/C [16]: 4.57%
viability, T/C [17]: 4.57%
viability, T/C [18]: 3.01%
viability, T/C [19]: 4.38%
viability, T/C [20]: 4.08%
viability, T/C [21]: 3.98%
viability, T/C [22]: 4.09%
viability, T/C [23]: 4.15%
viability, T/C [24]: 3.45%
viability, T/C [25]: 7.21%
viability, T/C [26]: 6.5%
viability, T/C [27]: 5.9%
viability, T/C [28]: 5.48%
viability, T/C [29]: 5.49%
viability, T/C [30]: 5.8%
viability, T/C [31]: 1.62%
viability, T/C [32]: 1.77%
viability, T/C [33]: 1.12%
viability, T/C [34]: 1.8%
viability, T/C [35]: 1.55%
viability, T/C [36]: 1.05%

O=C(c1cc(Cc2n[nH]c(=O)c3ccccc23)ccc1F)N1CCN(C(=O)C2CC2)CC1 + CN1CCN(c2cc(C(=O)Nc3cc4cc(-c5cnn(C)c5)ccc4cn3)ccn2)CC1
IC50 (second compound 0.0316 µM): > 10000 nM
IC50 (second compound 0.1 µM): > 10000 nM
IC50 (second compound 0.316 µM): < 31.6 nM
IC50 (second compound 1 µM): < 31.6 nM
IC50 (second compound 3.16 µM): < 31.6 nM
IC50 (second compound 10 µM): < 31.6 nM
viability, T/C [1]: 108%
viability, T/C [2]: 98%
viability, T/C [3]: 94.9%
viability, T/C [4]: 95.3%
viability, T/C [5]: 89.6%
viability, T/C [6]: 80.3%
viability, T/C [7]: 96.8%
viability, T/C [8]: 96.9%
viability, T/C [9]: 79.1%
viability, T/C [10]: 85.6%
viability, T/C [11]: 88.3%
viability, T/C [12]: 62.8%
viability, T/C [13]: 33.5%
viability, T/C [14]: 34.3%
viability, T/C [15]: 29.7%
viability, T/C [16]: 31.1%
viability, T/C [17]: 29.2%
viability, T/C [18]: 23.2%
viability, T/C [19]: 5.93%
viability, T/C [20]: 3.31%
viability, T/C [21]: 4.81%
viability, T/C [22]: 4.43%
viability, T/C [23]: 5.12%
viability, T/C [24]: 5.59%
viability, T/C [25]: 7.36%
viability, T/C [26]: 7.02%
viability, T/C [27]: 6.98%
viability, T/C [28]: 7.16%
viability, T/C [29]: 7.79%
viability, T/C [30]: 10.4%
viability, T/C [31]: 1.95%
viability, T/C [32]: 2.1%
viability, T/C [33]: 1.53%
viability, T/C [34]: 2.95%
viability, T/C [35]: 2.41%
viability, T/C [36]: 1.71%
